Assays:
[1] = tested on: P. aeruginosa; experiment: Efficacy against P. aeruginosa dried on microplate wells (growth/no growth, 4 replicates); format: cell-based; conditions: 5% fetal bovine serum; for Positive cells out of a total of 4 after 5 min: contact time 5 min, diluted in water of 400 ppm hardness, positive = ineffective disinfection; for Positive cells out of a total of 4 after 10 min: contact time 10 min; for Positive cells out of a total of 4 after 10 min / Positive cells out of a total of 4 after 11 min / Positive cells out of a total of 4 after 13 min / Positive cells out of a total of 4 after 16 min / Positive cells out of a total of 4 after 20 min / Positive cells out of a total of 4 after 21 min / Positive cells out of a total of 4 after 25 min: water of 400 ppm hardness; for Positive cells out of a total of 4 after 11 min: contact time 11 min; for Positive cells out of a total of 4 after 13 min: contact time 13 min; for Positive cells out of a total of 4 after 16 min: contact time 16 min; for Positive cells out of a total of 4 after 20 min: contact time 20 min; for Positive cells out of a total of 4 after 21 min: contact time 21 min; for Positive cells out of a total of 4 after 25 min: contact time 25 min
Protocol: All solutions were diluted in water of 400 ppm hardness and all concentrations were expressed in ppm. Each of the solutions was tested in 4 replicates as described below. The numbers in Table 2 below indicate the number of “positive” cells or ineffective disinfection of 4 replicates. Various contact times noted on the tables were evaluated.
Flat bottom microplate wells were inoculated with 15 μL each of a suspension of 10% P. aeruginosa+5% fetal bovine serum in a saline solution, 4.5×10^7 cfu/mL using a Quadra Tower 400 Series High Throughput apparatus (Tomtec Inc., Hamden, Conn.). The plates were dried with cover open for 40 minutes at 36° C. Then, 120 μL of each test substance was transferred from the deep-well block to the test wells. The test organisms were exposed to the test substance for different contact times, after which the substances were removed with the Quadra and 150 μL of modified AOAC Letheen neutralizer+0.5% Na thiosulfate/growth broth was added to each well. The microplates were incubated at 36° C. for 24 hours and scored for growth/no growth.

[2] = Hydrogen peroxide stability in the presence of didecyldimethylammonium bicarbonate/carbonate; format: physicochemical
Excerpt: Hydrogen Peroxide Stability in the Presence of Didecyldimethylammonium Bicarbonate/-Carbonate

Molecule	Positive cells out of a total of 4 after 5 min [1]	Positive cells out of a total of 4 after 10 min [1]	Positive cells out of a total of 4 after 11 min [1]	Positive cells out of a total of 4 after 13 min [1]	Positive cells out of a total of 4 after 16 min [1]	Positive cells out of a total of 4 after 20 min [1]	Positive cells out of a total of 4 after 21 min [1]	Positive cells out of a total of 4 after 25 min [1]	% Hydrogen Peroxide Concentration at Time/Temperature: 1 Month/40° C. ([2]; 1 month, 40° C.) [%]	% Hydrogen Peroxide Concentration at Time/Temperature: 1 Month/RT ([2]; 1 month, room temperature) [%]	% Hydrogen Peroxide Concentration at Time/Temperature: 1 Week/40° C. ([2]; 1 week, 40° C.) [%]	% Hydrogen Peroxide Concentration at Time/Temperature: 1 Week/RT ([2]; 1 week, room temperature) [%]	% Hydrogen Peroxide Concentration at Time/Temperature: Initial ([2]; Initial, by weight, analytical accuracy ±3% relative) [%]
didecyldimethylammonium carbonate/bicarbonate [Quat 500 ppm]	4	4	4	4	1	0	1	0					
OO [H2O2 600 ppm, hydrogen peroxide]	4	4	2	0	0	0	0	0					
OO [3.0% H2O2, hydrogen peroxide]									1.82	2.85	2.74	2.99	3.11
OO [H2O2 2,000 ppm, hydrogen peroxide]	0	0	0	0	0	0	0	0					

From US20090004287A1, “Disinfectant formulations containing quaternary ammonium compounds and hydrogen peroxide” (priority 2007, published 2009)
